# In the PolyMetriX glass transition set:
# ± gives the standard deviation of the reports.
row,Compound,glass transition temperature
1,*c1ccc(Oc2ccc(C(=O)c3ccc(C(=O)c4ccc(C(=O)c5ccc(Oc6ccc(-c7nc(-c8ccccc8)[nH]c7*)cc6)cc5)cc4)cc3)cc2)cc1 (repeat unit),239.00 °C
2,*=Cc1ccc(/C=N/c2c(-c3ccccc3)cc(-c3ccc(-c4cc(-c5ccccc5)c(N=*)c(-c5ccccc5)c4)cc3)cc2-c2ccccc2)cc1 (repeat unit),300.00 °C
3,*CC(*)C1CCCC1 (repeat unit) [Poly(vinyl cyclopentane) ],75 ± 0.6 °C
4,*CC(*)c1ccccc1C(=O)O (repeat unit),177.00 °C
5,*C/C=C(\C)C(C)S(*)(=O)=O (repeat unit),73.00 °C
6,*c1cc(-c2sc(-c3cc(CCCCCCCCCC)c(*)s3)cc2CCCCCCCCCC)c2cccccc1-2 (repeat unit),22.50 °C
7,*c1ccc(Oc2ccc(C(=O)c3ccc4cc(C(=O)c5ccc(Oc6ccc(-c7nc(-c8ccccc8)[nH]c7*)cc6)cc5)ccc4c3)cc2)cc1 (repeat unit),248.00 °C
8,*CCCS(=O)(=O)CCCCS(=O)(=O)CCCOC(=O)O* (repeat unit),43.00 °C
9,*Oc1ccc(NC(=O)c2cc(NC(=O)c3ccncc3)cc(C(=O)Nc3ccc(*)cc3)c2)cc1 (repeat unit),305.00 °C
10,*CC(*)(C)C(=O)OCCCCCCN(C)c1ccc(N(C)C)cc1 (repeat unit),8.50 °C
11,*O[Si](*)(C)CCC (repeat unit),-120.00 °C
12,*c1ccc(Oc2ccc(Oc3ccc(N4C(=O)c5ccc(-c6ccc7c(c6)C(=O)N(*)C7=O)cc5C4=O)cc3)c(-c3ccccc3)c2)cc1 (repeat unit),247.00 °C
13,*c1ccc(-c2cc(C(C)(C)C)c(Oc3ccc(N4C(=O)c5ccc(-c6ccc7c(c6)C(=O)N(*)C7=O)cc5C4=O)cc3)c(C(C)(C)C)c2)cc1 (repeat unit),381.50 °C
14,*CCN(CCOC(=O)Nc1ccc(Cc2ccc(NC(=O)O*)cc2)cc1)c1ccc(/N=N/c2ccc([N+](=O)[O-])cc2C)c(C)c1 (repeat unit),130.00 °C
15,*C(=O)c1cc2c(cc1Cl)C(=O)N(c1cc(N3C(=O)c4cc(*)c(Cl)cc4C3=O)cc(C(C)(C)C)c1)C2=O (repeat unit),290.00 °C
16,*CCCCCCCCCCOC(=O)CC/C=C/CCC(=O)O* (repeat unit),-15.00 °C
17,*CCOCCOC(=O)CCCCCCCC(=O)O* (repeat unit),-71.00 °C
18,*Oc1ccc(C(=O)Nc2ccc(C(c3ccc(NC(=O)c4ccc(*)cc4)cc3)(P3(=O)Oc4ccccc4-c4ccccc43)P3(=O)Oc4ccccc4-c4ccccc43)cc2)cc1 (repeat unit),243.00 °C
19,*/C=C(\C#N)C(=O)NC1CCCCC1NC(=O)/C(C#N)=C/c1ccc(/C=C/c2ccc(N(c3ccccc3)c3ccc(N(c4ccccc4)c4ccc(/C=C/c5ccc(*)s5)cc4)cc3)cc2)s1 (repeat unit),240.00 °C
20,*CCCCCCCCCCCCNC(=O)CCP(C)(=O)CCC(=O)N* (repeat unit),44.00 °C
21,*CCCCCCCCCCCCN1C(=O)c2cccc3c(-c4ccc5c6c(cccc46)C(=O)N(CCCCCCCCCCCCN4C(=O)c6ccc7c8ccc9c%10c(ccc(c%11ccc(c6c7%11)C4=O)c%108)C(=O)N(*)C9=O)C5=O)ccc(c23)C1=O (repeat unit),210.00 °C
22,*C(=O)c1ccc2c(c1)C(=O)N(c1ccc(Oc3ccc(C(=O)c4ccc(Oc5ccc(N6C(=O)c7ccc(*)cc7C6=O)cc5)cc4)cc3)cc1)C2=O (repeat unit),252.00 °C
23,*c1ccc(Cc2ccc(N3C(=O)C4CCC5C(=O)N(*)C(=O)C5C4C3=O)c(C)c2)cc1C (repeat unit),340.00 °C

row,Compound,glass transition temperature
1,*CC(*)O (repeat unit) [Poly(vinyl alcohol)],79.67 ± 32 °C
2,*c1ccc(Oc2ccc(C(=O)c3ccc(Oc4ccc(-c5c6c(c(*)c7ccccc57)C(=O)N(c5ccc(Cl)cc5)C6=O)cc4)cc3)cc2)cc1 (repeat unit),272.00 °C
3,*c1ccc2c(c1)C(=O)N(c1ccc(-c3ccc(Oc4ccc5c(c4)C(C)(c4ccc(Oc6ccc(-c7ccc(N8C(=O)c9ccc(C(*)(C(F)(F)F)C(F)(F)F)cc9C8=O)cc7)cc6C(F)(F)F)cc4)CC5(C)C)c(C(F)(F)F)c3)cc1)C2=O (repeat unit),262.00 °C
4,*CC(*)(C)C(=O)OCCCCCCOc1ccc(OC(=O)c2ccc(-c3ccc(OC)cc3)cc2)cc1 (repeat unit),57.00 °C
5,*c1ccc(C(c2ccccc2)c2ccc(-n3c(=O)c4cc5c(=O)n(*)c(=O)c5cc4c3=O)cc2)cc1 (repeat unit),321.00 °C
6,*CCOC(=O)c1ccc(-c2ccc(-c3ccc(C(=O)O*)cc3)cc2)cc1 (repeat unit),180.00 °C
7,*Oc1ccc(-c2ccc(OC(=O)Nc3cccc(P(=O)(c4ccccc4)c4cccc(NC(*)=O)c4)c3)cc2)cc1 (repeat unit),72.00 °C
8,*C(=O)c1ccc2nc(-c3ccc(-c4cnc5cc(*)ccc5n4)cc3)cnc2c1 (repeat unit),318.00 °C
9,*CCC1C(=O)N(CCCC)C(=O)C1* (repeat unit),67.90 °C
10,*CC(*)(C)C(=O)OC(OCC)C(F)(F)F (repeat unit),60.00 °C
11,*c1ccc(Oc2ccc(N3C(=O)c4cccc(Oc5ccc(Sc6ccc(Oc7cccc8c7C(=O)N(*)C8=O)cc6)cc5)c4C3=O)cc2)cc1 (repeat unit),234.00 °C
12,*Oc1cccc(Oc2cccc(OC(*)=O)c2)c1 (repeat unit),71.00 °C
13,*CCC[Si](*)(C)O[Si](C)(C)CCCOc1ccc(-c2ccc(C#N)cc2)cc1 (repeat unit),-4.60 °C
14,*c1ccc(C(=O)Nc2ccc(-n3c(=O)c4cc5c(=O)n(*)c(=O)c5cc4c3=O)cc2C(=O)OCC)cc1 (repeat unit),340.00 °C
15,*CCCCCOC(=O)c1ccc(-c2ccc(C(=O)O*)cc2)cc1 (repeat unit),47.50 °C
16,*Oc1ccc(C(c2ccc(Oc3ccc(C(=O)Nc4ccc(NC(=O)c5ccc(*)cc5)cc4)cc3)cc2)(C(F)(F)F)C(F)(F)F)cc1 (repeat unit),218.00 °C
17,*c1cc(OCCCC)c(*)cc1OCCCC (repeat unit),37.00 °C
18,*CC(C[Si](*)(C)C)c1cccc2ccccc12 (repeat unit),39.00 °C
19,*CC(c1ccccc1)C1C(=O)N(c2ccccc2)C(=O)C1* (repeat unit),221.00 °C
20,*Oc1ccc(NC(=O)Nc2ccccc2CCc2ccccc2NC(=O)Nc2ccc(*)cc2)cc1 (repeat unit),232.00 °C
21,*c1ccc2c(c1)C(=O)N(c1cccc(S(=O)(=O)c3cccc(N4C(=O)c5ccc(C(*)(C(F)(F)F)C(F)(F)F)cc5C4=O)c3)c1)C2=O (repeat unit),275.00 ± 5.7 °C
22,*c1cccc(N2C(=O)c3ccc(Oc4ccc5c(c4)C(=O)N(*)C5=O)cc3C2=O)c1 (repeat unit),270.50 ± 13 °C
23,*CCOCCOCCOCCOC(=O)c1ccc(-c2ccc(C(=O)O*)cc2)cc1 (repeat unit),4.00 °C
